Experimental data published in patent publication US20200377568A1, “Novel IL-4-/IL-13-derived peptide compounds for the treatment or prevention of neurodegenerative or neuroinflammatory diseases” (Universitätsmedizin der Johannes Gutenberg-Universität Mainz, priority 2018, published 2020).

Test system: dissociated cortical neurons
Assay: Phosphorylation of signalling molecules (Western blot)
Assay type: cell-based, mouse
Details: 50 ng/ml, 10 min treatment, FIG. 5B
Description: A: Cortical outgrowth in response to 50 ng/ml IL-4, Link4, or Link13, compared to PBS control. The increase in growth at 48 h was calculated over the basal (untreated) growth at 24 h. B: Effects on phosphorylation of signalling molecules after 10 min treatment of dissociated cortical neurons with IL-4, Link4 or PBS.
Neonatal (P1-3) cortex explants were dissected from 250 μm thick vibratome (HM650V, Thermo Fisher) sections from Bregma 0 to −1.5 (motor cortex). Cortical layer V was micro-dissected, plated on poly-D-lysine (0.5 mg/ml) and laminin (1 mg/ml)-coated glass coverslips and grown for 24 h in neurobasal medium with 2% horse serum, 2% B27, 1% glutamax and 0.5% penicillin/streptomycin. Explants were treated for 48 h with rIL-4 (50 ng/ml), Link4 (50 ng/ml), Link13 (50 ng/ml) or PBS. Axon length was assessed using Adobe Photoshop by measuring the distance of the 40 longest axons, corrected for the initial growth at 24 h. […]
For Western blotting, the following primary antibodies were used: anti-IRS1 (EMD Millipore), anti-phospho-IRS1 (Cell Signaling Technology), anti-MAPK and anti-phospho-MAPK (Cell Signaling Technology), anti-PKCγ (Santa-Cruz), anti-phospho-PKCγ (Biozol). DyLight […]-coupled secondary antibodies were used for quantitative analysis of the proteins using the Li-Cor Odyssey FC imaging system (Li-Cor Bioscience). […]

For “RARSEIIGIGSKSIMQMDY (listed as Mus musculus) [Link4]”, the “phosphorylation of signalling molecules (neuronal signalling)” value was “same neuronal signalling effects as IL-4”.
